Assay results: patent publication US6362212B1, “Oxime derivative and bactericide containing the same as active ingredient” (Shionogi & Company, Ltd., priority 1994, dated 2002)

How the values were obtained:
Format in all cases: in vivo
Sphaerotheca fuliginea = experiment: Controlling effect on Sphaerotheca fuliginea by foliage application (pot experiment); conditions: foliage spray on cucumber (cv. TSUKUBASHIROIBO) first leaves, infected area after 10 days in greenhouse at 20° C.
In short: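 First leaves of cucumber seedlings, 2-3 weeks old, were sprayed with compound (DMF solution diluted in water with spreader). They were inoculated 24 h later with a Sphaerotheca fuliginea conidia spray and kept 10 days at 20° C in a greenhouse. Percent control was calculated from infected leaf area.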

Botrytis cinerea = experiment: Controlling effect on Botrytis cinerea by foliage application (pot experiment); conditions: foliage spray on cucumber (cv. TSUKUBASHIROIBO) first leaves, mycelial disks, lesion diameter after 3 days in moist chamber at 20° C.
Protocol: The following Test Examples illustrate the effects of the fungicide of the present invention. (I. Controlling effects on various plant diseases by foliage application (pot experiment)) A test compound was dissolved in a small amount of N,N-dimethylformamide, and the solution was diluted to a given concentration with distilled water containing a spreader. Thus, a liquid sample to be tested was prepared. The liquid sample was sprayed to test plants, and 24 hours thereafter, pathogens were inoculated by the method described below. […] The seeds of cucumber ([…]) were sown in plastic cups (each 9 cm in diameter), followed by cultivation for 2 to 3 weeks. The test compound in the form of a solution or suspension was sprayed to the surface of their first leaves, and mycelial disks (4 mm φ) of Botrytis cinerea cultured on the potato sucrose agar medium were put on the leaf surfaces to inoculate. the cucumber seedlings with the pathogen. The plants were kept in a moist chamber at 20° C. for 3 days. The diameter of the lesions on the leaves was measured and the percent control was calculated.

[1] = system: Erysiphe graminis f. sp. tritici; experiment: Controlling effect on Erysiphe graminis f. sp. tritici by foliage application (pot experiment); conditions: foliage spray on wheat (cv. NORIN No. 61) seedlings, infected area after 10 days in greenhouse at 20° C.
In short: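 Wheat seedlings (cv. NORIN No. 61, 2-3 weeks old) sprayed with compound in DMF diluted in water with spreader, then inoculated with conidia 24 hours later. Kept in greenhouse at 20 °C for 10 days; percent control calculated from infected leaf area.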

[2] = system: Pseudoperonospora cubensis; experiment: Controlling effect on Pseudoperonospora cubensis by foliage application (pot experiment); conditions: foliage spray on cucumber (var. TSUKUBASHIROIBO) first leaves, lesion area after 10 days in moist chamber at 20° C.
Protocol: The following Test Examples illustrate the effects of the fungicide of the present invention. (I. Controlling effects on various plant diseases by foliage application (pot experiment)) A test compound was dissolved in a small amount of N,N-dimethylformamide, and the solution was diluted to a given concentration with distilled water containing a spreader. Thus, a liquid sample to be tested was prepared. The liquid sample was sprayed to test plants, and 24 hours thereafter, pathogens were inoculated by the method described below. […] The seeds of cucumber (var.: […]) were sown in plastic cups (each 9 cm in diameter), followed by cultivation for 2 to 3 weeks. The test compound in the form of a solution or suspension was sprayed to the surface of their first leaves, and a zoosporangia suspension of Pseudoperonospora cubensis cultured on cucumber leaves was dropped on the above leaf surfaces to inoculate the test plants with the pathogen. After the inoculation, the plants were kept in a moist chamber at 20° C. for 10 days. Then, the area of the lesions around the inoculum were observed and the percent control was calculated.

Pyricularia oryzae = conditions: foliage spray on rice seedlings (cv. […]), number of lesions six days after the inoculation
Puccinia coronata = experiment: Controlling effect on Puccinia coronata by foliage application (pot experiment); conditions: foliage spray on oat (cv. PC-38) seedlings, infected area after 1 day moist chamber and 8 days greenhouse at 20° C.
Protocol: The following Test Examples illustrate the effects of the fungicide of the present invention. (I. Controlling effects on various plant diseases by foliage application (pot experiment)) A test compound was dissolved in a small amount of N,N-dimethylformamide, and the solution was diluted to a given concentration with distilled water containing a spreader. Thus, a liquid sample to be tested was prepared. The liquid sample was sprayed to test plants, and 24 hours thereafter, pathogens were inoculated by the method described below. […] The seeds of oat (cv.: PC-38) were sown in plastic cups (each 9 cm in diameter), followed by cultivation for 2 to 3 weeks. The test compound in the form of a solution or suspension was sprayed to the seedlings. Spores of Puccinia coronata cultured on oat leaves were collected, diluted about 10-fold with talc, and sprayed to the test plants to inoculate the plants with the pathogen. After the inoculation, the plants were kept in a moist chamber at 20° C. for 1 day and then in a greenhouse at 20° C. for 8 days. The infected area on the leaf was observed, and the percent control was calculated.

| SMILES | Controlling effect on Sphaerotheca fuliginea by foliage application at 500 ppm (percent control) (Sphaerotheca fuliginea) | Controlling effect on Botrytis cinerea by foliage application at 500 ppm (percent control) (Botrytis cinerea) | Controlling effect on ErYsiphe graminis f. sp. tritici by foliage application at 500 ppm (percent control) [1] | Controlling effect on Pseudoperonospora cubensis by foliage application at 500 ppm (percent control) [2] | Controlling effect on PYricularia orYzae by foliage application at 500 ppm (percent control) (Pyricularia oryzae) | Controllng effect on Puccinia coronata by foliage application at 500 ppm (percent control) (Puccinia coronata) |
| --- | --- | --- | --- | --- | --- | --- |
| CON=C(c1ccccc1COc1ccc(Cl)c(Cl)c1)c1nccn1C (single isomer, unassigned) [132A] | 100 percent control | 70 percent control | 70 percent control | 100 percent control | 70 percent control | – |
| CON=C(c1cnco1)c1ccccc1COc1ccccc1 (mixture of isomers) [compound 1721] | 100 percent control | – | 90 percent control | 100 percent control | – | 70 percent control |
| CON=C(c1ccno1)c1ccccc1COc1cc(C)ccc1C (single isomer, unassigned) [536B] | 90 percent control | – | 100 percent control | 100 percent control | 70 percent control | 97 percent control |
| CON=C(c1ccccc1COc1ccccc1C)c1nccn1C (single isomer, unassigned) [112A] | 100 percent control | – | 100 percent control | 97 percent control | 97 percent control | 100 percent control |
| CON=C(C1=NCCN1C)c1ccccc1COc1ccccc1C [compound 1112] | 100 percent control | – | 90 percent control | – | 97 percent control | 70 percent control |
| CON=C(c1noc(C)n1)c1ccccc1COc1cc(C)ccc1C (single isomer, unassigned) [936A] | 100 percent control | – | 97 percent control | – | 97 percent control | 90 percent control |
| CON=C(c1ccccc1COc1cc(C)ccc1C)c1nccn1C (single isomer, unassigned) [136B] | 100 percent control | – | 70 percent control | – | 70 percent control | 97 percent control |
| CON=C(c1ccccc1COc1ccc(-c2ccccc2)cc1)c1nccn1C (single isomer, unassigned) [144A] | 100 percent control | 70 percent control | – | 100 percent control | – | – |
| CON=C(c1nnco1)c1ccccc1COc1ccccc1 [compound 701] | 100 percent control | – | 70 percent control | 100 percent control | – | 97 percent control |
| CON=C(c1ccccc1COc1ccc(Cl)cc1Cl)c1nccn1C (single isomer, unassigned) [130A] | 100 percent control | 70 percent control | – | 100 percent control | – | – |
| CON=C(c1nnco1)c1ccccc1COc1cccc(C(F)(F)F)c1 [compound 722] | 100 percent control | – | 90 percent control | 100 percent control | 90 percent control | 97 percent control |
| CON=C(c1cc(C)no1)c1ccccc1COc1ccccc1C (single isomer, unassigned) [612A] | 97 percent control | – | 100 percent control | 100 percent control | 90 percent control | 97 percent control |
| CON=C(c1ncon1)c1ccccc1COc1ccccc1 [compound 801] | 100 percent control | – | 90 percent control | 100 percent control | 70 percent control | 97 percent control |
| CON=C(c1nnco1)c1ccccc1COc1ccccc1C [Compound No. 712] | 100 percent control | – | 100 percent control | – | 90 percent control | 100 percent control |
